test system: swine adipose tissue; experiment: Inhibition of lipogenesis (lipid synthesis from glucose-U-14C) in swine adipose tissue slices; format: cell-based; settings: Sus scrofa, 100 micrograms per milliliter, 37° C., 2 hours, 5% DMSO, insulin, triplicate, read-out: Percent Inhibition of lipogenesis compared to control
From the text: The manner in which they cause this effect is not known with certainty; it is believed that they interfere with the synthesis of fatty acids in the tissues. Their effectiveness for this purpose has been ascertained by immersing samples of swine adipose tissue in a liquid medium containing radioactive glucose and the test chemical for a period of time, then isolating the lipid from the treated tissue and determining the up-take of the radio-active carbon by means of scintillation counting techniques. These tests were conducted in swine adipose tissue because in swine, the primary site of lipogenesis--i.e., fatty acid synthesis--appears to be adipose tissue.
Described in more detail, the tests were conducted according to the following general procedure:
150 milligrams of slices of swine adipose tissue were incubated at 37° C. for 2 hours with shaking in 3 milliliters of Krebs-Rringer bicarbonate solution containing one-half the normal calcium ion concentration, 60 micromoles of glucose, 0.5 micro-Curie of glucose-U^14 C, and 300 microunits of insulin, and 5% dimethyl sulfoxide (DMSO). The test compounds were added as a solution or suspension in DMSO and were present at a concentration of 100 micrograms per milliliter of the incubation mixture.
The incubation was terminated by addition of 0.25 milliliter of 1 N sulfuric acid. The resulting mixture was extracted with a total of 25 milliliters of chloroform: methanol (2:1 v/v). The extracts were washed according to Folch et al. (J. Biol. Chem., 226, 497-509, (1957)), air dried, and counted in a liquid scintillation counter with 15 milliliters of counting fluid (two parts toluene containing 0.4% w/v New England Nuclear Omnifluor: 1 part Triton X-100). The tests were conducted in triplicate and were accompanied by control tests in which all ingredients,proportions and conditions were the same except that no test compound was included. From the data obtained were calculated the percent inhibition of lipid synthesis by the test compounds in each case. The data obtained from the tests are set out in Table 1, as the percent inhibition of lipogenesis compared to the results obtained in the control tests wherein only the test compound was omitted.

| Compound | inhibition at 100 µg/mL [%] |
| --- | --- |
| C=CCNC(=O)C1CNc2ccccc2O1 (centres unmarked) [Compound 1, 3,4-dihydro-N-(2-propenyl)-2H-1,4-benzoxazine-2-carboxamide] | 51 |
| C=CCNC(=O)C1CN(C)c2ccccc2O1 (centres unmarked) [Compound 2, 3,4-dihydro-4-methyl-N-(2-propenyl)-2H-1,4-benzoxazine-2-carboxamide] | 40 |
| C=CCNC(=O)C1CNc2cc(Cl)ccc2O1 (centres unmarked) [Compound 3, 6-chloro-3,4-dihydro-N-(2-propenyl)-2H-1,4-benzoxazine-2-carboxamide] | 63 |
| C=CCNC(=O)C1CNc2cc(C)ccc2O1 (centres unmarked) [Compound 4, 6-methyl-3,4-dihydro-N-(2-propenyl)-2H-1,4-benzoxazine-2-carboxamide] | 57 |
| C=CCNC(=O)C1CNc2cc(NS(C)(=O)=O)ccc2O1 (centres unmarked) [Compound 5, 3,4-dihydro-6-((methylsulfonyl)amino)-N-(2-propenyl)-2H-1,4-benzoxazine-2-carboxamide] | 40 |
| C=CCNC(=O)C1CNc2cc(C(F)(F)F)ccc2O1 (centres unmarked) [Compound 6, 6-(trifluoromethyl)-3,4-dihydro-N-(2-propenyl)-2H-1,4-benzoxazine-2-carboxamide] | 57 |
| C=CCNC(=O)C1CNc2cc(OC)ccc2O1 (centres unmarked) [Compound 7, 3,4-dihydro-6-methoxy-N-(2-propenyl)-2H-1,4-benzoxazine-2-carboxamide] | 76 |
| C=CCNC(=O)C1CNc2cccc(Cl)c2O1 (centres unmarked) [Compound 8, 8-chloro-3,4-dihydro-N-(2-propenyl)-2H-1,4-benzoxazine-2-carboxamide] | 24 |
| C=CCNC(=O)C1CNc2cc(Cl)c(Cl)cc2O1 (centres unmarked) [Compound 9, 6,7-dichloro-3,4-dihydro-N-(2-propenyl)-2H-1,4-benzoxazine-2-carboxamide] | 44 |
| C=CCNC(=O)C1CNc2ccc(C)cc2O1 (centres unmarked) [Compound 10, 3,4-dihydro-7-methyl-N-(2-propenyl)-2H-1,4-benzoxazine-2-carboxamide] | 21 |
| C=CCNC(=O)C1CNc2cc(-c3ccccc3)ccc2O1 (centres unmarked) [Compound 11, 3,4-dihydro-6-phenyl-N-(2-propenyl)-2H-1,4-benzoxazine-2-carboxamide] | 70 |

Reference: patent US4164576A, “Benzoxazine carboxamides” (Shell Oil Company, priority 1978, dated 1979)
